Assay results published in patent US12403132B2, “Methods of treating bone marrow failure syndromes and compositions for use in the same” (The Board of Trustees of the Leland Stanford Junior …, priority 2020, dated 2025).

Tests used:
[1] = tested on: RPS19; experiment: RPS19 expression in differentiating HSPCs (qRT-PCR); type: cell-based, human; conditions: differentiating RPS19-insufficient HSPCs
From the text: As the suppression of NLK by miRNAs has been documented, we sought to screen a number of common nutritional supplements that have been documented to modulate miRNAs in their ability to improve erythroid expansion in an in vitro model of DBA. To induce ribosomal insufficiency, CD34+ HSPCs from human cord blood were transduced with a shRNA against RPS19 that reduced RPS19 expression by approximately 50% to recapitulate decreased function due to RPS19 mutations in DBA patients. As described above, metformin improves erythroid expansion by miRNA-mediated suppression of NLK mRNA expression and was therefore included as a positive control. […] Efficacy of shRNA against RPS19 was quantified by qRT-PCR. […] To determine if the ginsenoside Rb1 effect was through the inhibition of NLK, we treated differentiating HSPCs with ginsenoside Rb1 that were transduced with a non-targeting control or siRNA against NLK. Ginsenoside R1 alone or siRNA against NLK alone improved erythroid expansion by 2.7- and 5.1-fold, respectively.

[2] = target: T1, NLK (Homo sapiens, UniProt Q9UBE8); experiment: Kinase assay of NLK immunopurified from treated differentiating human progenitors; type: cell-based; parameters: 5000 cells per treatment were lysed and immunopurified NLK was subjected to in vitro kinase assay; endogenous in cells; host or cells: human cord blood CD34+ HSPCs transduced with shLuc / shRPS19 / shRPL11, differentiating in erythroid medium; conditions: NLK from ginsenoside Rb1-treated RPS19-insufficient progenitors
T1 sequence (Q9UBE8 1-527): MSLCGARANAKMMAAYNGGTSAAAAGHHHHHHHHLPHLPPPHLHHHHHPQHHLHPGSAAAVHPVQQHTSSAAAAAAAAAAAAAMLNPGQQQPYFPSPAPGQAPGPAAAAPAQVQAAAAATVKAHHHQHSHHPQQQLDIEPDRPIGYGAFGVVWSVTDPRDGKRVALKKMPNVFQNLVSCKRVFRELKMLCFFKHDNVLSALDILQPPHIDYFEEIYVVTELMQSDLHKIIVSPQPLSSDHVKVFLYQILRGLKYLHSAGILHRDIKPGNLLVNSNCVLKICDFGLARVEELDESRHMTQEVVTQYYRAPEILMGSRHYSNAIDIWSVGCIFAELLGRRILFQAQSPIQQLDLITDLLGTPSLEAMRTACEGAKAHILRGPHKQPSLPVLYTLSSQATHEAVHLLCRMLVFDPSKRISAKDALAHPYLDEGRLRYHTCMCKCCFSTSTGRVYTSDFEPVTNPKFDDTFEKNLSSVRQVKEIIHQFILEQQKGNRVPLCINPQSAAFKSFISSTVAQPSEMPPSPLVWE

[3] = target: T1, NLK; experiment: Kinase Profiling of SD208; type: biochemical; conditions: 10 μM; data not shown
[4] = tested on: NLK; experiment: Endogenous NLK protein in K562 cells (Western blot); type: cell-based, human; conditions: K562, miRNA mimetics or metformin, 72 hrs
Protocol: FIG. 14. Metformin-mediated upregulation of miR-26a in human progenitors suppresses NLK expression. (Panel A) Human CD34+ (upper) and murine Lin-Kit+ (lower) progenitors were differentiated for 8 days in the presence or absence of metformin and the levels of indicated miRNAs were assessed by qRT-PCR. (Panel B) K562 cells stably expressing the luciferase gene coupled to the NLK 3′UTR were mock transfected, transfected with indicated miRNA mimetics, or treated with metformin, and cultured in the presence or absence of metformin for 72 hrs. After lysis, luciferase activity was determined and endogenous NLK and GAPDH protein expression was analyzed by Western blot. (Panel C) K562 cells were mock transfected, or transfected with either miR-34 or miR-26 sponges, prior to being left untreated or treated with metformin for 72 hrs. Lysed cells were subjected to luciferase assay and western blotting to examine NLK and GAPDH protein expression. […] Statistics: two-tailed Student's t test, significant *P<0.05
NLK kinase activity was performed as published (5). For Western blotting, antibodies against NLK (#AB97642; Abcam; 1:1000 dilution) and GAPDH (#MAB374; Millipore; 1:10000) were used according to manufacturer's instructions.

[5] = tested on: human NLK 3′UTR; experiment: Luciferase fused to human NLK 3′UTR in K562 cells; type: cell-based
Protocol: FIG. 12. NLK 3′UTR facilitates metformin-mediated NLK suppression. (Panel A) K562 cells stabling expressing luciferase alone (top portion), luciferase expressed behind a minimal promoter and the NLK proximal promoter (2nd portion), luciferase immediately upstream of the human NLK 3′UTR (3rd portion) or luciferase with the SATB1 3′UTR (bottom portion) were grown in the presence of 0, 0.5, 5.0 or 50.0 mM of metformin for 72 hrs. Cell were pelleted and either processed for luciferase assay (left portion) or western blot analysis of endogenous NLK (upper right portion) or GAPDH (lower right portion). (Panel B) Luciferase immediately upstream of the human (upper), murine (middle) and zebrafish (lower) NLK 3′UTR were transiently transfected into human K562 (left) and cultured with indicated concentrations of metformin for 72 hrs. Lysates were assessed for luciferase activity and endogenous NLK and GAPDH protein expression by Western blotting. […] Statistics: two-tailed Student's t test, significant *P<0.05
FIG. 14. Metformin-mediated upregulation of miR-26a in human progenitors suppresses NLK expression. (Panel A) Human CD34+ (upper) and murine Lin-Kit+ (lower) progenitors were differentiated for 8 days in the presence or absence of metformin and the levels of indicated miRNAs were assessed by qRT-PCR. […] After lysis, luciferase activity was determined and endogenous NLK and GAPDH protein expression was analyzed by Western blot. […]
The NLK minimal promoter (1019 5′ nucleotides) and or NLK 3′UTR (1885 3′ nucleotides) were cloned upstream, or downstream respectively, of firefly luciferase and transfected into K562 cells. Transfection efficiency was normalized by RFP expression and firefly luciferase activity determined by Luciferase Assay Reagent II (LAR II) from Dual-Luciferase® Reporter (DLR™) Assay System (Promega). Luminescence was assessed using a Synergy™ H1 hybrid multi-mode microplate reader (BioTek®). […]

Q: How did the “influence on RPS19 expression” value [1] turn out when `CC(C)=CCC[C@](C)(O[C@@H]1O[C@H](CO[C@@H]2O[C@H](CO)[C@@H](O)[C@H](O)[C@H]2O)[C@@H](O)[C@H](O)[C@H]1O)[C@H]1CC[C@]2(C)[C@@H]1[C@H](O)C[C@@H]1[C@@]3(C)CC[C@H](O[C@@H]4O[C@H](CO)[C@@H](O)[C@H](O)[C@H]4O[C@@H]4O[C@H](CO)[C@@H](O)[C@H](O)[C@H]4O)C(C)(C)[C@@H]3CC[C@]12C` [ginsenoside Rb1] was run?
A: Its value is “did not influence”.

Q: What about the “reduced NLK kinase activity” value [2] of the same compound?
A: The value was 44.8%.

Q: For `Fc1ccc(Cl)cc1-c1nc(Nc2ccncc2)c2nccnc2n1` [SD208], which “NLK kinase activity inhibited” value [3] is on record?
A: Its value is 96.8%.

Q: For `CN(C)C(=N)N=C(N)N` [metformin], which “reduction of endogenous NLK protein expression” value [4] is on record?
A: The value was 68.6%.

Q: What about the “reduction of luciferase activity (wild-type human NLK 3′UTR)” value ([5]; K562, miRNA mimetics or metformin, 72 hrs) of the same compound?
A: Its value is 72.5%.

Q: And the “decrease of luciferase (NLK 3′UTR fusion)” value ([5]; stable K562, 50 mM metformin, 72 hrs)?
A: The value was 67.5%.

Q: And the “decrease of luciferase activity, human 3′UTR” value ([5]; transient transfection in K562, metformin 72 hrs)?
A: The value was 65.4%.
